Test results published in patent US20140065122A1, “Method for Removing a Microorganism Biofilm” (priority 2010, published 2014).

Legend:
[1] = tested on: Staphylococcus aureus RN4220 GFP biofilm; experiment: Example 2: Staphylococcus aureus biofilm treated with lysostaphin with or without pretreatment by swimming Bacillus thuringiensis 407, residual biovolume; assay type: cell-based
Procedure: The strains of bacteria used for these experiments correspond to strains of Staphylococcus aureus RN4220 GFP and Bacillus thuringiensis 407 described in Table I.
The target biofilms of Staphylococcus aureus RN4220 GFP cultivated in microplates and the Bacillus thuringiensis 407 cultures used are obtained according to the method described previously.
(§1) On a microplate containing 24-hour biofilms of Staphylococcus aureus RN4220 GFP having a thickness of more than 30 μm, one carefully removes 250 μL of supernatant from each well. 250 μL of culture medium (control) or suspension of Bacillus thuringiensis 407 calibrated at 10^8 cells/mL are then added into each well.
The Staphylococcus aureus biofilms in the presence or not of swimming bacteria are then incubated at 37° C. for 4 hours.
These target biofilms, sensitized or not for 4 hours by a cocktail of swimming bacteria, are then treated by adding into the wells 250 μL of lysostaphin in a concentration range of 0 to 0.5 μg/ml.
The same experimental device as the one described in the first experiment was used to quantify the effectiveness of treatment (comparison between the residual biovolume of the target biofilm during activity of the lysostaphin with or without pretreatment and a cocktail of swimming bacteria).

[2] = tested on: Staphylococcus aureus RN4220 GFP biofilm; experiment: Examples 4 and 5: log reduction of Staphylococcus aureus biofilm after bacterial pretreatment followed by benzalkonium chloride; assay type: cell-based; details: Example 5; treatment with C14 benzalkonium chloride after pretreatment with the named strain(s)
Procedure: The target biofilms of Staphylococcus aureus RN4220 GFP cultivated in microplates and bacilli cultures used are obtained according to the method previously described for Bacillus thuringiensis 407.
as §1, with “greater” for “of more”, “of: • Bt • BtΔfla • Bl • or Bt+Bl at equal concentrations,” for “of Bacillus thuringiensis 407”, “to” for “into”
The Staphylococcus aureus biofilms in the presence or not of bacteria are then incubated at 37° C. for 4 hours to allow infiltration of swimming bacteria. The supernatants are eliminated prior to placement into contact with the biocide.
These target biofilms are then treated by adding to the wells 200 μL of C14 benzalkonium chloride (BAC, Fluka, Buchs, Switzerland) at a concentration of 750 ppm, or 200 μl of […] sodium chloride (NaCl) (“non-treated” biofilm. […]
The surviving S. aureus are counted on TSA agar after serialized dilutions in 150-mM NaCI and incubation for 24 hours at 37° C.
The log 10 reductions of the S. aureus bacteria are calculated by comparing the relationship of the surviving ones in the disinfected biofilms to the population of non-treated biofilms. […]

**Q.** Which results are given for lysostaphin?
**A.** eradication of the target biofilm by the antimicrobial compound alone ([1]; lysostaphin concentration <0.5 μg/ml, without pretreatment): does not allow eradication; effectiveness on the target biofilm after pretreatment with a cocktail of swimming bacteria ([1]; pretreatment Bacillus thuringiensis 407 10^8 cells/mL 4 hours, lysostaphin 0 to 0.5 μg/ml, P<0.05): improved

**Q.** C14 benzalkonium chloride was tested. Which “Log reduction (+/−0.2)” value [2] did it give?
**A.** −0.9 log
